The record followed here is PMC4521150, “Discovery of Novel Inhibitors and Fluorescent Probe Targeting NAMPT” (Scientific Reports, 2015).

Where two headings read alike, the source gives them in different places.

For series [1], the system named is HepG2 cells. In words: Cell viability assay (CCK-8) in HepG2 cells. Conditions: for IC50: HepG2, 48 h, CCK-8, read-out: IC50 for inhibitory effect on HepG2 cell viability. It counts as cell-based, human. As for the experimental part:
(§1) Cell viability was determined by our previous method[27] using the Cell Counting Kit-8 (CCK-8, Dojindo, Japan). In human hepatocellular carcinoma cell line HepG2, cells were seeded in 96-well plate and starved for over 12 h with serum-free DMEM at 60~70% confluency, then treated with compounds or vehicle for 48 h. To determine the IC50 values of inhibitors, compounds with various concentrations were added into the 96-well plate. 10 μl CCK-8 solution was added to the culture medium and incubated at 37 °C for 1 h. The absorbance at 450 nm (A450) was detected by a plate reader. Each experiment was carried out in triplicate in three replicate wells. The IC50 values were determined by non-linear fitting of the concentration-dependent curves with the four-parameter IC50 logistic equation.

Series [2] has as its system Huh-7 cell. In words: Cell viability in Huh-7 cells. It counts as cell-based, human. Conditions: Huh-7, Figure S2. An excerpt:
However, IC50 values for other 5 fluorescent compounds were able to be determined (Supplemental dataset S2). We then measured the fluorescence of all 9 fluorescent compounds at a series of different concentrations.

For series [3], the system named is primary mouse hepatocytes. The experiment in a line: Cell viability of primary hepatocytes from normal mice. The format is cell-based. Conditions: 30 μM. The protocol:
as §1
Hepatocytes were isolated from mouse liver by the two-step collagenase perfusion method. […] For imaging experiment, 1 × 10^5 cells were plated in a 35-mm glass bottom dishes or 5 × 10^4 were plated in 48-well plate for cell viability assay in DMEM supplemented with 10% FBS and antibiotics, and kept under an atmosphere of 95% air and 5% CO2 at 37 °C.

For series [4], the system named is HepG2 NAD levels. In words: Cellular NAD measurement (enzymatic cycling assay) in HepG2 cells. It counts as cell-based, human. As for the experimental part:
Cellular level of NAD was measured by spectrophotometric enzymatic cycling assay, as described previously. Briefly, cells were seeded in 96-well plate and starved for over 12 h with serum-free DMEM at 60~70% confluency, following by treatment with compounds or vehicle for 24 h. Cells were lysed with 50 μl of 1M HClO4 on ice for 30 min. The lysates were cleared by centrifuging at 4 °C at 18,000 × g for 5 min, and cleared lysates (40 μl) were neutralized by adding 1M K2CO3 (16 μl) and incubation on ice for 20 min. After centrifuging for 10 min, 10 μl of supernatant were mixed with reaction buffer [50 mM Tris-HCl (pH 7.5), 3% ethanol, 1.66 mM PES (phenazineethosulfate), 0.42 mM MTT (3-(4,5-dimethylthiazolyl-2)-2,5-diphenyltetrazolium bromide), 90 μg/ml ADH] in a total volume of 100 ul, and incubated at 37 °C for 40 min. The absorbance at 570 nm was determined. A blank measurement without ADH was also carried out. Each experiment was carried out in triplicate in three replicate wells

Series [5] concerns HepG2 cells. In words: Live cell fluorescence imaging of compounds in HepG2 cells. The following applies: 3 μM, 30 minutes incubation, washed. It counts as cell-based, human. As for the experimental part: NAMPT knockdown in HepG2 cells was performed by transfection of NAMPT siRNA synthesized by Shanghai GenePharma Co., Ltd (Shanghai, China). The siRNA sequence targeting NAMPT corresponded to coding regions (5′-[…]-3′, 5′-[…]-3′) of the NAMPT gene. The nonspecific siRNA oligonucleotides (synthesized by Shanghai GenePharma Co., Ltd, Shanghai, China) were used as negative controls. 10 nM of NAMPT siRNA or nonspecific siRNA were transfected into HepG2 cells with Lipofectamine RNAiMax reagent (Invitrogen, CA, USA) according to the manufacturer’s instructions. After 24 or 48 hours, transfected cells were subjected to subsequent analysis.
For imaging experiment, HepG2 cells or primary hepatocytes were seeded into 35-mm glass bottom dishes (In Vitro Scientific). The following day, compounds were added to the medium at a final concentration of 3 μM. After 30 minutes, cells were rinsed twice with PBS (pH 7.5), then incubated in fresh culture medium and imaged on a fluorescence microscope (IX-71, Olympus) with a digital camera (Olympus). After 4 hours, these cells were imaged once again. Digital images were recorded and analyzed using ImageJ.

Usually IC50 stands for the midpoint of a concentration-inhibition curve.

Turning to `Cc1nc2ccccc2n(Cc2ccc(C(=O)NCc3cccnc3)cc2)c1=O` [F671-0003], the “Effect on HepG2 cell viability at 2 μM” value in series [1] (2 μM, 48 hours of incubation) was “significant inhibition on cell viability”. In series [1] (HepG2, 2 μM, 48 h), the “Inhibition on cell viability” value came to 50%. In series [1] (HepG2, 3 μM compound, NMN at 300 μM), the “Rescue of cell viability by exogenous NMN” value is listed as “totally rescued”. Further, the IC50 is 1.69 ± 0.15 µM in series [1]; ~2 µM in series [1] (Homo sapiens); 0.00671 µM in series [4] (Homo sapiens, HepG2, 24 hours treatment, read-out: IC50 for reducing NAD level). Besides, in series [2], the “Effect on Huh-7 cell viability” value is given as “Inhibitory effects”. In addition, the “Inhibition of normal hepatocytes viability” value in series [3] is recorded as ~ 20%. For the same compound, the “Decrease of cellular NAD level” value in series [4] (HepG2, 1 μM, 24 hours) is reported as ~ 80%. The “Cellular fluorescence in living HepG2 cells” value in series [5] is “did not show any fluorescence”.
